Here are results for one molecule from patent publication US20080152640A1, “Means and Methods For Treating a Disease Which is Associated With an Excess Transport of Hyaluronan Across a Lipid Bilayer” (priority 2003, published 2008).

For one series, the system named is human skin fibroblasts. The series can be described thus: Proliferation of human skin fibroblasts (cell counting). Format: cell-based. The following applies: Homo sapiens, Skin fibroblast, read-out: Proliferation (IC50). As to the method: Human fibroblasts were grown in […] in Dulbecco's modified Eagles medium supplemented with streptomycin/penicillin (100 units of each/ml), kanamycin (100 units/ml) and 10% foetal calf serum. Cell proliferation was determined by cell counting after trypsinisation three days after seeding.

For another series, the system named is human fibroblasts. The series can be described thus: Hyaluronan production of human fibroblasts (ELISA of culture medium). As to conditions: Fibroblast; human fibroblasts, culture medium; read-out: HA production (IC50). Format: cell-based. (In general: In an ELISA, binding on a coated surface is turned into a signal by an enzyme label.)
In a further series the target is T1, MRP4 (Homo sapiens, UniProt O15439).
T1 sequence (O15439 1-1325): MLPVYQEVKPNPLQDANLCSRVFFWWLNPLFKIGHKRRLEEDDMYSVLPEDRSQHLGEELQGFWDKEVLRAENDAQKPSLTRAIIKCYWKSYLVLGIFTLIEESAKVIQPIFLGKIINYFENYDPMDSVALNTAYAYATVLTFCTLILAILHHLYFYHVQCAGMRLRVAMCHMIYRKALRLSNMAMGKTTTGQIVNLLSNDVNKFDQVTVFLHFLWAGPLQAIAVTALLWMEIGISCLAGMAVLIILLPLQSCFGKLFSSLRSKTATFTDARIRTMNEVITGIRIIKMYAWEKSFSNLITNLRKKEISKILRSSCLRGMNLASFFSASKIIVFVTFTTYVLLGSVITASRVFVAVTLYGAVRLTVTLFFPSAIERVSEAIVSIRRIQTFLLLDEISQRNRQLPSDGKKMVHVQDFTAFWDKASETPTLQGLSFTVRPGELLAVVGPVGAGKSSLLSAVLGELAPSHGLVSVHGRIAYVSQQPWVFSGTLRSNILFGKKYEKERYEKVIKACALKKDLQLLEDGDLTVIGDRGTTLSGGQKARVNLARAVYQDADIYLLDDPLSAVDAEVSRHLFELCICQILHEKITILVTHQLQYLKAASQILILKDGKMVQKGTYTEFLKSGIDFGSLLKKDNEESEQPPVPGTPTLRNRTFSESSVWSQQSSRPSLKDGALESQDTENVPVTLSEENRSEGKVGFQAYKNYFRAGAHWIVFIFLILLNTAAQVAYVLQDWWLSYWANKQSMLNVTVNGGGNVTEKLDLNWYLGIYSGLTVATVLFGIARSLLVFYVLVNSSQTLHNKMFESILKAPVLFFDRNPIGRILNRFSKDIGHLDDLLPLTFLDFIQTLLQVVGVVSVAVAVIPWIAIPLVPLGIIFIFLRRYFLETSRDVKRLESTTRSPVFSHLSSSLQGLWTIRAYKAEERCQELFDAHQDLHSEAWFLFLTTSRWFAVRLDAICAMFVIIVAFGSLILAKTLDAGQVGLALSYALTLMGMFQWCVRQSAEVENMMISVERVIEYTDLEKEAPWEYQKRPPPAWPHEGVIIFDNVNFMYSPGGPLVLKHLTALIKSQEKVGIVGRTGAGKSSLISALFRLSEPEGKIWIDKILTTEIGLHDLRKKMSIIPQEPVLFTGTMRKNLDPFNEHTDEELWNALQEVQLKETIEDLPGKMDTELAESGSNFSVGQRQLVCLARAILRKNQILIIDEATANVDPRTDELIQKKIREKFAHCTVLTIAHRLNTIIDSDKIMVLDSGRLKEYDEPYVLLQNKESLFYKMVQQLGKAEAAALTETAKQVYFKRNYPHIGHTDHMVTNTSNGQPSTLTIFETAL
As to conditions: cited from earlier work.

The target of series [1] is MRP transporters (Homo sapiens, UniProt P33527). The following applies: read-out: IC50 for MRP transporter; cited from earlier work.
Series [2] relates to T2, MRP transporters.
T2 construct: other: human erythrocytes
The following applies: human erythrocytes; cited from earlier work.

Another series deals with hyaluronan transport. The series can be described thus: Inhibition of hyaluronan transport (export) from human fibroblasts, discussion of Example 9. As to conditions: human fibroblasts.
Another series has as its target MRP5 (Homo sapiens, UniProt O15440). As to conditions: cited from earlier work.
For the next series, the target named is MDR1 (Homo sapiens, UniProt P08183). As to conditions: cited from earlier work.

Where two headings read alike, the source gives them in different places. Where only a bound is given, the exact number is not on record here.

MRP5, sequence (O15440 whole entry): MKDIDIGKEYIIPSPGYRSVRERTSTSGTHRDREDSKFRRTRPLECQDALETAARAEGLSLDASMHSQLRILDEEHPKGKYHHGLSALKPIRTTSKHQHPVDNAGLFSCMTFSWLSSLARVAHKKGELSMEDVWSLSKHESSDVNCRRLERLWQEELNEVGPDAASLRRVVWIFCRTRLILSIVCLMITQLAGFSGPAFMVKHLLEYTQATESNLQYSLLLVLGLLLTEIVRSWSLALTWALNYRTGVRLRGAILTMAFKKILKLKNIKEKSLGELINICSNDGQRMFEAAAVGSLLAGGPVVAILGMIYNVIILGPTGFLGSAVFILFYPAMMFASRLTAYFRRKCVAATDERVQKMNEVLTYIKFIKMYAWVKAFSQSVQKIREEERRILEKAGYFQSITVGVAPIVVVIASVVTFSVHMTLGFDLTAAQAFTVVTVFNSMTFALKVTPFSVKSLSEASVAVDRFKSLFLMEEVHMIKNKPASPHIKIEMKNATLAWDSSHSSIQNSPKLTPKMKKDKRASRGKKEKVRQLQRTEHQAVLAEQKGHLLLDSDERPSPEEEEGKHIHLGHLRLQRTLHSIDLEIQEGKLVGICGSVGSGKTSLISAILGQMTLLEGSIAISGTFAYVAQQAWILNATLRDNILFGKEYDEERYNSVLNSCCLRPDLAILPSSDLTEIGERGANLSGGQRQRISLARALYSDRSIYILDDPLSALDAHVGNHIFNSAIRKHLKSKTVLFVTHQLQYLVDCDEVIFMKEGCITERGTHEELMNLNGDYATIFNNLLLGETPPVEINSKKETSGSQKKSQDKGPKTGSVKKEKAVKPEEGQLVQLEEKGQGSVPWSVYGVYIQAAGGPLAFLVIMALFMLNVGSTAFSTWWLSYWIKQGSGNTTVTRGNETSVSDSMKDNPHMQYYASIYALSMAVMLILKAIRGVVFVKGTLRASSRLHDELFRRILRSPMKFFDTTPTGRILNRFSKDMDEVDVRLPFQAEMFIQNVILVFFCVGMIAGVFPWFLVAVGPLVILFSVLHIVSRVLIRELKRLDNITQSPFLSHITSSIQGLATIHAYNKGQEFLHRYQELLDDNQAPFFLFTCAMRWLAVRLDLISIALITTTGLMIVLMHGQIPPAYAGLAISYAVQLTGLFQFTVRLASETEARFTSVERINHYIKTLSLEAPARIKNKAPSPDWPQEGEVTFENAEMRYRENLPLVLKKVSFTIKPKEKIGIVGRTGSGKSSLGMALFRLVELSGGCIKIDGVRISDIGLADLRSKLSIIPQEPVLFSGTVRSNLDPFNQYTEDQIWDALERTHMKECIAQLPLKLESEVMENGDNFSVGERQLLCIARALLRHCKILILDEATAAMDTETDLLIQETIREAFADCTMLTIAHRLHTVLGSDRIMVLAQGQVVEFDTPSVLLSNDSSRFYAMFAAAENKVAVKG
MDR1, sequence (P08183 whole entry): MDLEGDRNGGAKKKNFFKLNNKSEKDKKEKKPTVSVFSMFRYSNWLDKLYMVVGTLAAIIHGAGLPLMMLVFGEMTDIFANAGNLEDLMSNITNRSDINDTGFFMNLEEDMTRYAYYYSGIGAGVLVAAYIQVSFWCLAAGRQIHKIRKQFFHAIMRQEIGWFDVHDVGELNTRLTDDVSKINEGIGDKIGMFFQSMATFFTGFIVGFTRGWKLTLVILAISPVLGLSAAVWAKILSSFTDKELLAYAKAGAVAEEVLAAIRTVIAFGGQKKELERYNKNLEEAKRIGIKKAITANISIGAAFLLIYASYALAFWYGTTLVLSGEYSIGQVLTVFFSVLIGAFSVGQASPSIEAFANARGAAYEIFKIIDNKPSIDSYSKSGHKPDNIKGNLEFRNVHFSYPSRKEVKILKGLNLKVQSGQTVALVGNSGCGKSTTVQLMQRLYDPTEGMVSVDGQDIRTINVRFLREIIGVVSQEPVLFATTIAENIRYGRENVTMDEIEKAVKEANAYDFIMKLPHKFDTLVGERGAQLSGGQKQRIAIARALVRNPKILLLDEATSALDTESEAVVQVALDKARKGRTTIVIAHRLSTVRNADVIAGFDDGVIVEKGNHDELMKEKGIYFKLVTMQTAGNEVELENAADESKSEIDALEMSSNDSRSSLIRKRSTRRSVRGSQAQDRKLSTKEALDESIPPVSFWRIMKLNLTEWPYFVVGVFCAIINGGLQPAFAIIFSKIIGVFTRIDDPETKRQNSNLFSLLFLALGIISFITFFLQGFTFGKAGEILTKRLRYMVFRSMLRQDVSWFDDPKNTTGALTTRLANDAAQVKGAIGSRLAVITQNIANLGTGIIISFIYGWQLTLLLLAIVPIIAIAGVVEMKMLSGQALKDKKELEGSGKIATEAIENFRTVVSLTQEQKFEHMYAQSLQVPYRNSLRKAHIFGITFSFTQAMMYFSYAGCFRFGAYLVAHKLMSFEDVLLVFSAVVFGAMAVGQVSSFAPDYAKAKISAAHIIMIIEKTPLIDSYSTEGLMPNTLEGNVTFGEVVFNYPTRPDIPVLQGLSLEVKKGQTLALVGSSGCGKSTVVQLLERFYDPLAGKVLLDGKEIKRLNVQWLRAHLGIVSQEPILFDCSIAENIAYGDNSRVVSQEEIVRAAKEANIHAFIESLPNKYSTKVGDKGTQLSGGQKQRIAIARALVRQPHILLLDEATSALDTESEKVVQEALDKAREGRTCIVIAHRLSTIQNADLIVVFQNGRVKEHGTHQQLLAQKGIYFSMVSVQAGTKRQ
MRP transporters (Homo sapiens, UniProt P33527), sequence (P33527 whole entry): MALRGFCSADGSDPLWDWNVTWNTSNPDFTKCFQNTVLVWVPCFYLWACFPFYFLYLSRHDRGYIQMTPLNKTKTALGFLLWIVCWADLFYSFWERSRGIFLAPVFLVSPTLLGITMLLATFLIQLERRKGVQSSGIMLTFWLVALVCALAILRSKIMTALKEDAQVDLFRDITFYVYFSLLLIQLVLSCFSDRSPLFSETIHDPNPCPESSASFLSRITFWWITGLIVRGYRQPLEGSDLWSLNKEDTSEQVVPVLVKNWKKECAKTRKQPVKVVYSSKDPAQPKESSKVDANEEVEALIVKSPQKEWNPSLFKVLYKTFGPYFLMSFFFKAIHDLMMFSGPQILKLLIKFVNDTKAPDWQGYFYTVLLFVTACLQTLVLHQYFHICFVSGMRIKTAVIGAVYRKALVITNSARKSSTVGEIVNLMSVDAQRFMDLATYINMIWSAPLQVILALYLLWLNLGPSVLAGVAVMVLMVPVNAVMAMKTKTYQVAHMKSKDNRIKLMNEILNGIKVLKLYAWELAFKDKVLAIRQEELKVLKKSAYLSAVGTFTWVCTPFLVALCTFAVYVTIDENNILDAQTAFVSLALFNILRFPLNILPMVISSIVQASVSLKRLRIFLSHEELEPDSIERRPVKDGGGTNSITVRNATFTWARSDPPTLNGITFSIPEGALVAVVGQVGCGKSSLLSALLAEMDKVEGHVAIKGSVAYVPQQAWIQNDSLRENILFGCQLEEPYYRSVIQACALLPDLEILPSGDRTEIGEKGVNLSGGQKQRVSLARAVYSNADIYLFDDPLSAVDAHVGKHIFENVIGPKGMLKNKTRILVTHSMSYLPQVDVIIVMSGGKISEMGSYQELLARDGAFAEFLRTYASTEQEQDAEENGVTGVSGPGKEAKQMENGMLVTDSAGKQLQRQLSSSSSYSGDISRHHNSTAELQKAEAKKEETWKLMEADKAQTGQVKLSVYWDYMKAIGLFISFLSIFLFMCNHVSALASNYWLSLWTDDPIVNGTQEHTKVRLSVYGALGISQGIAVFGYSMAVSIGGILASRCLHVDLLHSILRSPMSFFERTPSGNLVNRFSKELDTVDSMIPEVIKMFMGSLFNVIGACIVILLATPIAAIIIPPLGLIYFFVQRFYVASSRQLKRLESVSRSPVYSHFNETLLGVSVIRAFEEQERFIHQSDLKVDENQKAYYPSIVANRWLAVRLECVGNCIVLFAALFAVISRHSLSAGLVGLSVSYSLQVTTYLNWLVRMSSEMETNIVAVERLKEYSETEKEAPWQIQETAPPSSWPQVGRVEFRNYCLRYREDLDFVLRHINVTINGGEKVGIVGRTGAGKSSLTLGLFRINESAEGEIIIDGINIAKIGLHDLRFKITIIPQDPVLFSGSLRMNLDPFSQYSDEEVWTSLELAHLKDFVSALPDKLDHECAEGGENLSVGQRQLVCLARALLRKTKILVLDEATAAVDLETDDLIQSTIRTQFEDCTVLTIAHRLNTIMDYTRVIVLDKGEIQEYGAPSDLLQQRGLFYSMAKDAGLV
Method for hyaluronan transport: Cells from five culture flasks (180 cm2 growth area) were washed with cold phosphate buffered saline (PBS), harvested with the aid of a rubber policeman, sedimented at 1500 g for 5 min and suspended in 30 ml of ice-cold PBS. The cells were transferred into a Parr-cell disruption bomb, exposed to a nitrogen pressure of 900 psi for 15 min and disrupted by nitrogen cavitation [18] and the particulate fraction was obtained by centrifugation at 40000 g for 20 min. […] Hyaluronan synthesis was stopped by adding a solution of 10% sodium dodecylsuifate (SDS) to a final concentration of 1%. The mixtures were applied to descending paper chromatography that was developed with ethanol/aq. 1 M ammonium acetate pH 5.5 (13:7) as solvent. After 18 h the radioactivity of [14C]hyaluronan at the origin was determined.
Trypsinised fibroblasts were suspended in Dulbecco's medium at 10^5 cells/ml and 100 μl aliquots were transferred to a 96 well microtiter plate. The first row received 200 μl of the suspension and 20 μl of the multidrug resistance inhibitors dissolved in DMSO at concentrations of 4 mM. A serial dilution to the inhibitors was established by transfer of 100 μl aliquots from the first row to the following rows. All experiments were performed in duplicates. […] The cells were incubated for 2 days at 37° C. and aliquots (5 and 20 μl) of the culture medium were used for measurement of the hyaluronan concentration in the cell culture medium by an ELISA [19]. […] The mixtures were transferred to the hyaluronan-coated test plate and incubated for 1 hour at 37° C. The microtiter plate was washed three times with buffer A and incubated with 100 μl/well of a solution of streptavidin-horseraddish-peroxidase (Amersham) at a dilution of 1:100 in phosphate buffered saline, 0.1% Tween-20 for 30 min at room temperature. The plate was washed five times with buffer A and the colour was developed by incubation with a 100 μl/well of a solution of 5 mg o-phenylenediamine and 5 μl 30% H2O2 in 10 ml of 0.1 M citrate-phosphate buffer pH 5.3 for 25 min at room temperature. The adsorption was read at 490 nm. The concentrations in the samples were calculated from a logarithmic regression curve of the hyaluronan standard solutions.
Three parameters were measured: 1. The amount of hyaluronan produced during growth into the culture supernatant. 2. The hyaluronan synthase activity in particulate membrane fractions to eliminate the possibility that inhibition of hyaluronan production in cell culture could be caused indirectly by cellular mediators. 3. The effect on cell proliferation, because hyaluronan synthesis is also required for detachment during mitosis and growth of the human HT1080 cell line [14].

Take `CCCN(CCC)S(=O)(=O)c1ccc(C(=O)O)cc1` [Probenecid]: the IC50 in the series on human skin fibroblasts is 200 µM; with human fibroblasts it was 200 µM; on MRP4 (read-out: IC50, 9-(2-phosphonomethoxyethyl)adenine (PMEA) transport by MRP4, substrate PMEA) it was 2300 µM; on MRP4 (read-out: IC50, MRP4 mediated export of methotrexate, substrate methotrexate), approximately 300 µM; at MRP4 (read-out: published inhibitory concentrations IC50 or Ki, MRP4), 300 µM; on MRP transporters [1] it was 500 to 800 µM. For the same molecule, the IC50 was 100 to 200 µM in the series on MRP transporters [2]; 200 µM on MRP5 (substrate PMEA, read-out: IC50, PMEA transport by MRP5); more than 2000 µM on MDR1 (read-out: IC50 for MDR1); more than 2000 µM on MDR1 (read-out: published inhibitory concentrations IC50 or Ki, MDR1). Further, the “inhibition of hyaluronan transport (words)” value in the series on hyaluronan transport is recorded as “inhibited hyaluronan transport”. Moreover, at MRP5 (at a concentration of 50 μM), the “inhibition of MRP5 mediated transport of cGMP” value is recorded as 68%. In addition, the “concentration inhibiting export of fluorescein diacetate by MRP5” value at MRP5 (substrate fluorescein diacetate) was 1 mM.
